Data as given in patent publication US12195596B2, “Hyperbranched boric acid modified phthalonitrile monomer as well as preparation method and use thereof” (priority 2021, dated 2025).

Assay: Solubility of phthalonitrile monomers in common organic solvents
Type: physicochemical
Set-up: key: “+” represents “soluble”

Measured: Solubility

N#Cc1ccc(Oc2cccc(OB(Oc3cccc(Oc4ccc(C#N)c(C#N)c4)c3)Oc3cccc(Oc4ccc(C#N)c(C#N)c4)c3)c2)cc1C#N [Example 3]
+: DMF | DMSO | NMP | THF | acetone

N#Cc1ccc(Oc2cccc(OB(Oc3cccc(Oc4ccc(C#N)c(C#N)c4)c3)c3ccccc3)c2)cc1C#N [Example 4]
+: DMF | DMSO | NMP | THF | acetone
